Reference: BindingDB's records for doi:10.3109/14756360903169592 (Ufr Des Sciences Pharmaceutiques Et Ingenierie De La Sante, 2010)
pIC50: −log10 of the molar value.

biological target: T1, Protein farnesyltransferase subunit beta/geranylgeranyltransferase type-1 subunit alpha (Saccharomyces cerevisiae (strain ATCC 204508 / S288c), UniProt P22007+P29703); experiment: Fluorescence-Based PFTase Inhibition Assay; conditions: pH 7.5; 30 °C
T1 sequence (P22007 whole entry): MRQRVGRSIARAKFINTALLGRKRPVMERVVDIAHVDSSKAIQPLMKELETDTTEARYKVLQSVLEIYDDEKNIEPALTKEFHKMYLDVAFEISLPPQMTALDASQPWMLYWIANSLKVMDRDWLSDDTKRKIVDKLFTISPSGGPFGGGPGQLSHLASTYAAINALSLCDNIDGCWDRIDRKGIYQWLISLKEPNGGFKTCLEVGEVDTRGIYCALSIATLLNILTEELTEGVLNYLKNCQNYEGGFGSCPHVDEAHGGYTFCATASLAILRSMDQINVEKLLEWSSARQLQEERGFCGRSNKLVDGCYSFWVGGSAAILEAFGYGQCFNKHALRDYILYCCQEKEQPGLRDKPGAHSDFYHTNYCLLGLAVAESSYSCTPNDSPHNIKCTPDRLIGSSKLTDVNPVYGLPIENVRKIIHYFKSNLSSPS
T1 sequence (P29703 whole entry): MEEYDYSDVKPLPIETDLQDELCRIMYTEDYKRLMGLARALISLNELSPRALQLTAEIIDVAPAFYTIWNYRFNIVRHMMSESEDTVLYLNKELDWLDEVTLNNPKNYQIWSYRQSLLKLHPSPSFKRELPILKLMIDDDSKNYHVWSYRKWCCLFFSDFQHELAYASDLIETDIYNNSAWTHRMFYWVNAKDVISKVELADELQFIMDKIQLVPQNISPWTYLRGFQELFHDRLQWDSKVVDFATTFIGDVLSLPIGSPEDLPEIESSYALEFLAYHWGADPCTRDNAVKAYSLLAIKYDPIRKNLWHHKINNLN
Method: Assays were realized on 96-well plates, prepared with Biomek NKMC and Biomek 3000 from Beckman Coulter and read on a Wallac Victor fluorimeter from PerkinElmer. Per well, 20 μL of farnesyl pyrophosphate (10 μM) was added to 180 μL of a solution containing 2 μL of varied concentrations of tested compounds (dissolved in methanol) and 178 μL of a solution composed by 0.1 mL of partially purified recombinant yeast FTase (2.2mg/mL) and 7.0 mL of Dansyl-GCVLS peptide (in the following buffer: 5.8 mM DTT, 12 mM MgCl2, 12 μM ZnCl2, and 0.09% (w/v) CHAPS, 53 mM Tris/HCl, pH 7.5). Then the fluorescence development was recorded for 15 min (0.7 s per well, 20 repeats) at 30°C with an excitation filter at 340 nm and an emission filter at 486 nm.

| Structure (SMILES) | pIC50 |
| --- | --- |
| CC(=O)OC(C)CC(OC(C)=O)C1=CC[C@H]2[C@H](C[C@@H]1C)OC(=O)[C@@H]2C (stereo partly drawn) [Acetyl-11β,13-dihydro-4-epi-isoxanthanol (15)] | 4.40 |
| CC(=O)CCC1=CC[C@@H]2C(C)C(=O)O[C@H]2C[C@@H]1C (stereo partly specified) [11,13-Dihydroxanthinosin (13)] | 3.62 |
| C=C1C(=O)O[C@H]2C[C@H](C)C(C(CC(C)OC(C)=O)OC(C)=O)=CC[C@H]12 (stereo partly drawn) [Acetyl-4-epi-isoxanthanol (6)] | 4.40 |
| CC(O)CCC1=CC[C@@H]2C(C)C(=O)O[C@H]2C[C@@H]1C (stereo partly specified) [4,11,13-Tetrahydroxanthinosin (14)] | < 3.00 |
| CC(=O)/C=C/C1=CC[C@H]2[C@H](C[C@@H]1C)OC(=O)[C@@H]2C [11β,13-Dihydroxanthatin (10)] | 3.68 |
| CC(O)/C=C/C1=CC[C@H]2[C@H](C[C@@H]1C)OC(=O)[C@@H]2C (stereo partly drawn) [4,11β,13-Tetrahydroxanthatin (8)] | < 3.00 |
| C/C=C(/C)C(=O)O[C@H]1[C@H]2[C@H](C)C(=O)O[C@@H]2C[C@@H](C)[C@@H]2C=CC(=O)[C@]21C [6-O-angeloylprenolin] | 4.73 |
| CC(=O)/C=C/[C@]12O[C@H]1C[C@H]1[C@H](C[C@@H]2C)OC(=O)[C@@H]1C [11β,13-Dihydroxanthatin-1,5β-epoxide (12)] | 4.18 |
| C=C1C(=O)O[C@@H]2C[C@H](C)C(/C=C/C(C)=O)=CC[C@H]12 [8-Epi-xanthatin] | 4.19 |
| C=C1C(=O)O[C@@H]2C[C@H](C)[C@]3(/C=C/C(C)=O)O[C@@H]3C[C@H]12 [8-Epi-xanthatin-1,5α-epoxide] | 4.24 |
| CC(=O)OC(CC(C)O)C1=CC[C@H]2[C@H](C[C@@H]1C)OC(=O)[C@@H]2C (stereo partly drawn) [11β,13-Dihydro-4-epi-isoxanthanol (16)] | 3.20 |
| CC(=O)OC(C)/C=C/C1=CC[C@H]2[C@H](C[C@@H]1C)OC(=O)[C@@H]2C (stereo partly drawn) [2,3-(E)-Dehydro-4-epi-isoxanthanol (9)] | 3.05 |
| CC(=O)/C=C/[C@@]12O[C@@H]1C[C@H]1[C@H](C[C@@H]2C)OC(=O)[C@@H]1C [11β,13-Dihydroxanthatin-1,5α-epoxide (11)] | 4.05 |
| C=C1C(=O)O[C@H]2C[C@H](C)c3cc(C(C)=O)oc3C[C@H]12 [3,5-Oxyxanthatin (7)] | < 3.00 |

Other lines, results leading:

| pIC50 | Structure (SMILES) |
| --- | --- |
| 6.00 | C/C=C(/C)C(=O)O[C@H]1C[C@H](C)[C@@H]2C(=O)C=C(C)[C@@H]2[C@H]2OC(=O)C3(CC45C=C[C@]3(C)C4[C@H]3OC(=O)C(C)[C@@H]3CC[C@@]5(C)O)[C@@H]21 (stereo partly specified) [Arteminolide C] |
| 6.02 | C=C1C(=O)O[C@@H]2C3C4(C=C[C@@]3(C)C3(C4)C(=O)O[C@@H]4[C@H]5C(C)=CC(=O)[C@H]5[C@@H](C)C[C@H](OC(=O)/C(C)=C\C)[C@H]43)[C@](C)(O)CC[C@@H]12 (stereo partly specified) [Arteminolide C'] |
| 3.82 | C=C1C(=O)O[C@H]2C[C@H](C)C(C(CC(C)=O)OC(C)=O)=CC[C@H]12 (stereo partly drawn) [α-Methylene-γ-lactone, 1] |
| 3.30 | C=C1C(=O)O[C@H]2C[C@H](C)[C@@]3(/C=C/C(C)=O)O[C@H]3C[C@H]12 [Xanthatin-1,5β-epoxide (4)] |
| 4.00 | C=C1C(=O)O[C@H]2C[C@H](C)[C@]3(/C=C/C(C)=O)O[C@@H]3C[C@H]12 [Xanthatin-1,5α-epoxide (5)] |
| 4.00 | C=C1C(=O)O[C@H]2C[C@H](C)C(/C=C/C(C)=O)=CC[C@H]12 [Xanthatin (2)] |
| < 3.00 | C=C1C(=O)O[C@H]2C[C@H](C)C(C(CC(C)O)OC(C)=O)=CC[C@H]12 (stereo partly drawn) [α-Methylene-γ-lactone, 3] |
